From US10144762B2, “Antibacterial antisense oligonucleotide and method” (priority 2005, dated 2018)
Values after ≈ are worked out from the molar mass of the structure shown. Values joined by “and” are separate entries in the source; they are usually repeats but may differ in a detail not shown here. Identical values can stand only once. Like-named read-outs stand apart in the source and are kept apart here.

Assays:
[1] = test system: E. coli W3110; assay: E. coli W3110 pure culture, CFU/ml and dose-response; assay type: cell-based
[2] = test system: E. coli W3110; assay: MIC, broth microdilution method of the Clinical and Laboratory Standards Institute; assay type: cell-based; settings: Escherichia coli, read-out: minimum inhibitory concentration (MIC)
[3] = test system: E. coli AS19 (pT7myc-luc); assay type: in vivo; settings: mice; for CFU/ml (×10^6): peritoneal lavage
[4] = test system: luciferase transcript; design: species or system firefly; settings: in vivo
[5] = test system: luciferase transcript; assay: Western blot of luciferase protein normalized to OmpA in peritoneal lavage bacteria; assay type: in vivo, firefly; design: Western Blot % Inhibition (luciferase protein): concentration or dose not given beside the values; settings: for Western Blot % Inhibition (luciferase protein): compared to nonsense PMO-treated mice; for Western Blot Luc/OmpA Mean: n = 7-8
[6] = test system: E. coli AS19; assay type: cell-based

Row | Molecule | antibacterial activity (CFU/ml after 8 hours) ([1]; E. coli W3110 (FIG. 13)) | IC50 ([1]; Escherichia coli, E. coli W3110 pure culture (FIG. 14), read-out: IC50 (50% inhibitory concentration)) [µM] | MIC [2] [µM] | CFU/ml (×10^6) ([3]; 13 h after treatment) | CFU/ml (×10^6) ([3]; 22 h after treatment) | Luciferase Activity RLU/CFU Mean [4] | Western Blot % Inhibition (luciferase protein) ([5]; 13 h) [%] | Western Blot Luc/OmpA Mean ([5]; 13 h after treatment) | Western Blot % Inhibition (luciferase protein) ([5]; 22 h) [%] | Western Blot Luc/OmpA Mean ([5]; 22 h after treatment) | inhibition of growth compared to nonsense PMO treatment ([3]; treated at 0 and 13 hours post-infection) | Luciferase Activity % Inhibition [4] | Western Blot % Inhibition (luciferase protein) ([5]; 22 h, listed as luc PMO) [%] | growth monitored by optical density [6] | viable cells (CFU/ml) [6]
1 | CC1(C)S[C@@H]2[C@H](NC(=O)[C@H](N)c3ccccc3)C(=O)N2[C@H]1C(=O)O [ampicillin] | showed antibacterial activity | 7.7 | 10 (≈ 3.49 µg/mL) |  |  |  |  |  |  |  |  |  |  |  | 
2 | Nonsense: nonsense PMO control for luc PMO, TCC ACT TGC C, SEQ ID NO 78 (TCCACTTGCC; all phosphorodiamidate morpholino (PMO)) [reference compound] |  |  |  | 4.3 ×10^6 CFU/ml | 0.39 ×10^6 CFU/ml | 6.19 RLU/CFU and 8.12* RLU/CFU | 0 | 0.382 | 0 | 0.339 |  |  |  |  | 
3 | Luc: PMO complementary to the region around the start codon of the luciferase transcript, ACG TTG AGG C, SEQ ID NO 77 (antisense ACGTTGAGGC; all phosphorodiamidate morpholino (PMO)) |  |  |  | 6.3 ×10^6 CFU/ml | 0.96 ×10^6 CFU/ml | 3.20 RLU/CFU and 2.90 RLU/CFU | 68 | 0.122 | 57 | 0.147 | no inhibition of growth | 53% and 46% | 47 |  | 
4 | PMO 62-4: acpP-14mer PMO, TC GAT AGT GCT CAT, SEQ ID NO 65 (antisense TCGATAGTGCTCAT; all phosphorodiamidate morpholino (PMO)) |  |  |  |  |  |  |  |  |  |  |  |  |  | statistically insignificant inhibitions | significantly reduced
